For test [1], the target named is T1, Poly [ADP-ribose] polymerase 1 (Homo sapiens, UniProt P09874). The test is described as follows: Inhibition of PARP-1 (unknown origin).
In test [2] the target is T2, Poly [ADP-ribose] polymerase 2 (Homo sapiens, UniProt Q9UGN5). The test is described as follows: Inhibition of PARP-2 (unknown origin).
In test [3] the test system is DLD-1. The test is described as follows: Antiproliferative activity against human DLD-1 cells harbouring wild type BRCA assessed as inhibition of cell growth. The test is classed as functional, cell-based.
The subject of test [4] is DLD-1. The test is described as follows: Antiproliferative activity against human DLD-1 cells harbouring BRCA-2 mutant assessed as inhibition of cell growth. The test is classed as functional, cell-based.
The target of test [5] is T2, Poly [ADP-ribose] polymerase 2. The test is described as follows: Inhibition of PARP-2 (unknown origin) binding to DNA assessed as DNA trapping activity.
The target in test [6] is T1, Poly [ADP-ribose] polymerase 1. The test is described as follows: Inhibition of PARP-1 (unknown origin) binding to DNA assessed as DNA trapping activity.

Molecules are shown by their SMILES. Some results are limits rather than exact numbers.

T2 sequence (Q9UGN5 whole entry): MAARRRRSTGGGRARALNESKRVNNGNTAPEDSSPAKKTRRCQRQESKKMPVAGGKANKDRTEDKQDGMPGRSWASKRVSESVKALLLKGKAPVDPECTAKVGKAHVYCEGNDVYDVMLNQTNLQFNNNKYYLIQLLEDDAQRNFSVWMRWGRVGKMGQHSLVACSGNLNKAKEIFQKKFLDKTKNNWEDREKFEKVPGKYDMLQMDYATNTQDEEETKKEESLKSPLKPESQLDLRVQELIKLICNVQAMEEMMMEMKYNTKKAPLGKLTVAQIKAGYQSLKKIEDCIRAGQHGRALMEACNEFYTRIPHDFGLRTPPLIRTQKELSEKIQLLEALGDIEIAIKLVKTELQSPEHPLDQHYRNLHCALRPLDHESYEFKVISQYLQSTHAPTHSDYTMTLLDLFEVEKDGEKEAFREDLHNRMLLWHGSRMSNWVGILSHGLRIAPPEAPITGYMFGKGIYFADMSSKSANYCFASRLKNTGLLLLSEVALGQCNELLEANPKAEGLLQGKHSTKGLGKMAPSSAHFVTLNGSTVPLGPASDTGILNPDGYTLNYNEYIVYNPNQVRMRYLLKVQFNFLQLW
T1 sequence (P09874 whole entry): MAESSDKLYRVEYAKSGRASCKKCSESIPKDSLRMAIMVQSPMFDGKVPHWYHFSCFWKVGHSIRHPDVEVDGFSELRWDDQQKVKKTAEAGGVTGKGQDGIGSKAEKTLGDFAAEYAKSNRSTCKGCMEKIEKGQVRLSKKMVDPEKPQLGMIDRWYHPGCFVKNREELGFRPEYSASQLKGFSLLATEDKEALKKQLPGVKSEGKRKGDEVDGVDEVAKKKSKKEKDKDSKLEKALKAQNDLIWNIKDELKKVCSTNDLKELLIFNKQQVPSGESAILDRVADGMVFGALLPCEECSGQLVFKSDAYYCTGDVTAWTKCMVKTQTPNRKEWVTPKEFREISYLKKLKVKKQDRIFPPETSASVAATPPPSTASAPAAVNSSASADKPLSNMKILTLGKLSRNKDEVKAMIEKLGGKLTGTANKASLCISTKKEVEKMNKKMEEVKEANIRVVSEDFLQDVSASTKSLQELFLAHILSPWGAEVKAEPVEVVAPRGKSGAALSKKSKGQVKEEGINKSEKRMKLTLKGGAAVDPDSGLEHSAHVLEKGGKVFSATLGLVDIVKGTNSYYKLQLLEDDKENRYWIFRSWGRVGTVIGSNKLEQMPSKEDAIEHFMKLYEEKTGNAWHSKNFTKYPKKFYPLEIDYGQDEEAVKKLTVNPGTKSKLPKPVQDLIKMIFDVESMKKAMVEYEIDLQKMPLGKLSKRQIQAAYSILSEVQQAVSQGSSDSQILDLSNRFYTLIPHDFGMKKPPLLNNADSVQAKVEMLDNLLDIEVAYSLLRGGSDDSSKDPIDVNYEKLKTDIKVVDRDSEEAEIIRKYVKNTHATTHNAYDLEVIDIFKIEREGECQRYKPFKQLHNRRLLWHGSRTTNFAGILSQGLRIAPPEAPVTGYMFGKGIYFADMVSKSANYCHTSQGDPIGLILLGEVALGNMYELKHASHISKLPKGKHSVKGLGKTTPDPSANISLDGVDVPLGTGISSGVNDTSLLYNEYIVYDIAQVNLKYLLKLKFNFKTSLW

For `CCc1cc2ncc(CN3CC(Nc4ccc(C(=O)NC)nc4)C3)cc2[nH]c1=O`, the IC50 in test [1] came to 2.6 nM; in test [2], 192 nM; with DLD-1 [3], 89200 nM; in the test on DLD-1 [4] it was 25.6 nM; in test [5], 12000 nM; in test [6], 4.76 nM.

On to `CCc1cc2ncc(CN3CCN(c4ccc5cn[nH]c5n4)CC3)cc2[nH]c1=O`, for which the IC50 amounted to 0.41 nM in test [1], 15600 nM in the test on DLD-1 [3], 395 nM in the test with DLD-1 [4] and 4.78 nM in test [6].

Take `CCc1cc2ncc(CN3CCc4nc(C(=O)NC)ccc4C3)cc2[nH]c1=O`: the IC50 in test [1] was 348 nM; in test [2], 485 nM; in test [5] it was 4040 nM; in test [6], greater than 2500 nM.

Take `CCc1cc2ncc(CN3CCC(Nc4ccc(C(=O)NC)nc4)C3)cc2[nH]c1=O` (stereo not drawn): the IC50 in test [1] was 0.94 nM; in test [2] it was 68 nM; with DLD-1 [3] it was 102000 nM; in the test on DLD-1 [4], 43.8 nM; in test [5] it was 9440 nM; in test [6] it was 1.61 nM.

On to `CCc1cc2ncc(CN3C[C@@H]4C[C@H]3CN4c3ccc(C(=O)NC)nc3)cc2[nH]c1=O`, for which the IC50 in test [1] was 40 nM; in test [2] it was 340 nM; in test [5], 37700 nM; in test [6], greater than 2500 nM.

In the case of `CCc1cc2ncc(CN3CCN(c4ccc(C(=O)NC)c5nccn45)CC3)cc2[nH]c1=O`, the IC50 in test [1] stood at 0.63 nM; in test [2] it was 982 nM; in the test with DLD-1 [3] it was 8700 nM; with DLD-1 [4] it was 161 nM; in test [5], 1560 nM; in test [6], 3.58 nM.

As for `CCc1cc2ncc(CN3CC[C@@H](Nc4ccc(C(=O)NC)nc4)C3)cc2[nH]c1=O`, the IC50 stood at 0.49 nM in test [1]; 133 nM in test [2]; 43800 nM with DLD-1 [3]; 4.82 nM in the test with DLD-1 [4]; 3010 nM in test [5]; 1.85 nM in test [6].

For the compound `CCc1cc2ncc(CN3CC4CN(c5ccc(C(=O)NC)nc5)CC4C3)cc2[nH]c1=O` (stereo not drawn), the IC50 is 0.34 nM in test [1]; 18 nM in test [2]; 2980 nM with DLD-1 [3]; 46.8 nM in the test on DLD-1 [4]; 678 nM in test [5]; 8.14 nM in test [6].

As to `CCc1cc2ncc(CN3CCN(c4ccc(C(C)(C)O)nc4)CC3)cc2[nH]c1=O`, the IC50 in test [1] is 397 nM; in test [2], 450 nM; in test [5], 14000 nM; in test [6], greater than 2500 nM.

Take `CCc1cc2ncc(CN3CC4(CCN(c5ccc(C(=O)NC)nc5)CC4)C3)cc2[nH]c1=O`: the values for the IC50 in test [1] and in test [6] were 12 nM and 158 nM, respectively.

In the case of `CCc1cc2ncc(CN3CCN(c4ccc5[nH]ncc5n4)CC3)cc2[nH]c1=O`, the 50% inhibitory concentration (IC50) in test [1] is 0.78 nM; in test [2], 23 nM; in test [5], 1170 nM; in test [6], 380 nM.

`CCc1cc2ncc(CN3CCN(c4ccc5nc(C(F)(F)F)[nH]c5n4)CC3)cc2[nH]c1=O`: the IC50 in test [1] is 2.6 nM; in test [2] it was 60 nM; in test [5] it was 1400 nM; in test [6], 244 nM.

Regarding `CCc1cc2ncc(CN3CCN(c4cc5cccc(C(=O)NC)c5cn4)CC3)cc2[nH]c1=O`, the IC50 in test [1] came out at 14 nM; in test [2], 151 nM; in test [5], 2980 nM; in test [6], 1570 nM.

Take `CCc1cc2ncc(CN3CCN(c4cnc5cn[nH]c5c4)CC3)cc2[nH]c1=O`: the IC50 stood at 0.9 nM in test [1], 5.2 nM in test [2], 210 nM in test [5] and 231 nM in test [6].

Turning to `CCc1cc2ncc(CN3CC4CC(C3)N4c3ccc(C(=O)NC)nc3)cc2[nH]c1=O`, the IC50 in test [1] and in test [6] was greater than 2500 nM in each case.

Consider `CCc1cc2ncc(CN3CCN(c4ccc(OC(F)F)nc4)CC3)cc2[nH]c1=O`, for which the IC50 in test [1] was 1 nM; in test [2], 154 nM; with DLD-1 [3], 15200 nM; in the test with DLD-1 [4], 66 nM; in test [5] it was 6300 nM; in test [6] it was 4.51 nM.

Consider `CCc1cc2ncc(CN3CC4(C3)CN(c3ccc(C(=O)NC)nc3)C4)cc2[nH]c1=O`, for which the 50% inhibitory concentration (IC50) in test [1] stood at 0.59 nM; in test [2] it was 9 nM; in the test on DLD-1 [3], 28100 nM; in the test with DLD-1 [4], 164 nM; in test [5], 839 nM; in test [6], 2.97 nM.

For the compound `CCc1cc2ncc(CN3CC[C@H](Nc4ccc(C(=O)NC)nc4)C3)cc2[nH]c1=O`, the IC50 in test [1] was 33 nM; in test [2], 137 nM; with DLD-1 [3] it was 77100 nM; in the test on DLD-1 [4], greater than 2500 nM; in test [5] it was 4170 nM; in test [6], 1460 nM.

As for `CCc1cc2ncc(CN3CCN(c4ccc5oc(=O)[nH]c5c4)CC3)cc2[nH]c1=O`, the IC50 was 2 nM in test [1], 87 nM in test [2], 994 nM in test [5] and 10.4 nM in test [6].

In the case of `CCc1cc2ncc(CN3CCn4c(cnc4C(=O)NC)C3)cc2[nH]c1=O`, the IC50 in test [1] is 75 nM; in test [2] it was 20 nM; in test [5], 2040 nM; in test [6], greater than 2500 nM.

For `CCc1cc2ncc(CN3CCN(c4cc5c(cn4)NC(=O)CC5)CC3)cc2[nH]c1=O`, the IC50 in test [1] amounted to 5.4 nM; in test [2], 38 nM; in test [5], 167 nM; in test [6], 727 nM.

`CCc1cc2ncc(CN3CCC(Nc4ccc(C(=O)NC)nc4)CC3)cc2[nH]c1=O`: the concentration for half-maximal inhibition (IC50) stood at 3.4 nM in test [1], 40 nM in test [2], 3050 nM in test [5] and 259 nM in test [6].

In the case of `CCc1cc2ncc(CN3CC4CCC(C3)N4c3ccc(C(=O)NC)nc3)cc2[nH]c1=O`, the IC50 in test [1] was 41 nM; in test [6] it was greater than 2500 nM.

On to `CCc1cc2ncc(CN3CCN(c4ccc5cc[nH]c5n4)CC3)cc2[nH]c1=O`, for which the IC50 was 1.3 nM in test [1], 21 nM in test [2], 114 nM in test [5] and 64 nM in test [6].

As for `CCc1cc2ncc(CN3CCc4cc(/C=C/C(=O)NC)ccc4C3)cc2[nH]c1=O`, the IC50 in test [1] is 0.4 nM; in test [2], 41.5 nM; with DLD-1 [3], 33000 nM; with DLD-1 [4] it was 10.8 nM; in test [5], 1160 nM; in test [6], 11.2 nM.

For the compound `CCc1cc2ncc(CN3CCN(c4ccc(C(N)C(F)(F)F)nc4)CC3)cc2[nH]c1=O` (stereo not drawn), the half-inhibitory concentration (IC50) is 11800 nM in test [5] and greater than 2500 nM in test [6].

On to `O=C(c1cc(Cc2n[nH]c(=O)c3ccccc23)ccc1F)N1CCN(C(=O)C2CC2)CC1` [OLAPARIB], for which the IC50 in the test with DLD-1 [3] came to 23300 nM; with DLD-1 [4], 172 nM.

In the case of `CCc1cc2ncc(CN3CCN(c4ccc(C(=O)NC)nc4)CC3)cc2[nH]c1=O` [SARUPARIB], the IC50 in the test on DLD-1 [3] came to 12100 nM; with DLD-1 [4] it was 0.915 nM.

By IC50 is commonly meant the concentration at which inhibition is half-maximal.

The record behind these values is ChEMBL document CHEMBL5150037, “Synthesis and in vitro biological evaluation of 3-ethyl-1,5-naphthyridin-2(1H)-one derivatives as potent PARP-1 selective inhibitors and PARP-1 DNA trappers” (Bioorg Med Chem Lett, 2022).
